Data taken from ChEMBL document CHEMBL4480432, “Expansion of a novel lead targeting M. tuberculosis DHFR as antitubercular agents” (Bioorg Med Chem, 2019).

Columns and labels:
[1] = biological target: T1, Dihydrofolate reductase (Mycobacterium tuberculosis, UniProt P9WNX1); test: Inhibition of Mycobacterium tuberculosis H37Rv DHFR expressed in Escherichia coli BL21(DE3) assessed as reduction in consumption of NADPH using DHF as substrate preincubated for 1 min followed by DHF addition and measured for 2 mins by spectrophotometric method
T1 sequence (P9WNX1 whole entry): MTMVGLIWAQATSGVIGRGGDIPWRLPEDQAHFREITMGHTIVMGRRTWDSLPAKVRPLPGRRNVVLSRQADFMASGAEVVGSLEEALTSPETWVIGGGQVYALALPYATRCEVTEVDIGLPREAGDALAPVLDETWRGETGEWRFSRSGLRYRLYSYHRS

[2] = biological target: T2, Dihydrofolate reductase (Homo sapiens, UniProt P00374); test: Inhibition of human DHFR assessed as reduction in consumption of NADPH using DHF as substrate preincubated for 1 min followed by DHF addition and measured for 2 mins by spectrophotometric method
T2 sequence (P00374 whole entry): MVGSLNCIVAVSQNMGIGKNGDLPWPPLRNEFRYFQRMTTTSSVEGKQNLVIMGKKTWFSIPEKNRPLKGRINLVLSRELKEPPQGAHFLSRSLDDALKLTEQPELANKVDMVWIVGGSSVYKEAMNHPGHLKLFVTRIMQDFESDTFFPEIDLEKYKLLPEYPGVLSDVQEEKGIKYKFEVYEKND

[3] = tested on: DHFR (human versus Mycobacterium tuberculosis H37Rv); test: Selectivity index, ratio of IC50 for human DHFR to IC50 for Mycobacterium tuberculosis H37Rv DHFR expressed in Escherichia coli BL21(DE3); type: toxicity; conditions: human and Mycobacterium tuberculosis H37Rv; read-out: Ratio IC50
[4] = Sub-acute toxicity in albino Wistar rat assessed as adverse effect at 1.25 to 10 mg/kg, po administered for 28 days; type: organism-based; conditions: in vivo, 672 h
[5] = Sub-acute toxicity in albino Wistar rat assessed as change in body weight at 1.25 to 10 mg/kg, po administered for 28 days; type: organism-based; conditions: in vivo, 672 h
[6] = Sub-acute toxicity in albino Wistar rat assessed as effect on neurological changes at 1.25 to 10 mg/kg, po administered for 28 days; type: organism-based; conditions: in vivo, 672 h
[7] = Sub-acute toxicity in albino Wistar rat assessed as effect on sleep at 1.25 to 10 mg/kg, po administered for 28 days; type: organism-based; conditions: in vivo, 672 h
[8] = Sub-acute toxicity in albino Wistar rat assessed as tremors at 1.25 to 10 mg/kg, po administered for 28 days; type: organism-based; conditions: in vivo, 672 h
[9] = Sub-acute toxicity in albino Wistar rat assessed as change in respiration at 1.25 to 10 mg/kg, po administered for 28 days; type: organism-based; conditions: in vivo, 672 h
[10] = Sub-acute toxicity in albino Wistar rat assessed as change in central nervous system at 1.25 to 10 mg/kg, po administered for 28 days; type: organism-based; conditions: in vivo, 672 h
[11] = Sub-acute toxicity in albino Wistar rat assessed as effect on somatomotor system at 1.25 to 10 mg/kg, po administered for 28 days; type: organism-based; conditions: in vivo, 672 h
[12] = Sub-acute toxicity in albino Wistar rat assessed as change in serum protein level at 1.25 mg/kg, po administered for 28 days measured post last dose (reference value: […]); type: organism-based; conditions: in vivo, 672 h
[13] = Sub-acute toxicity in albino Wistar rat assessed as change in AST level at 2.5 mg/kg, po administered for 28 days measured post last dose (reference value: 22.5 +/- 1.76 U/L); type: organism-based; conditions: in vivo, 672 h
[14] = Sub-acute toxicity in albino Wistar rat assessed as change in ALT level at 2.5 mg/kg, po administered for 28 days measured post last dose (reference value: 12.19 +/- 1.78 U/L); type: organism-based; conditions: in vivo, 672 h
[15] = Sub-acute toxicity in albino Wistar rat assessed as change in hemoglobin level at 2.5 mg/kg, po administered for 28 days measured post last dose (reference value: 12.14 +/- 1.45 g%); type: organism-based; conditions: in vivo, 672 h
[16] = Sub-acute toxicity in albino Wistar rat assessed as change in CAT level per mg protein at 2.5 mg/kg, po administered for 28 days measured post last dose (reference value: 28.45 +/- 2.1 U); type: organism-based; conditions: in vivo, 672 h
[17] = Sub-acute toxicity in albino Wistar rat assessed as change in SOD level per mg protein at 5 mg/kg, po administered for 28 days measured post last dose (reference value: 4.85 +/- 0.34 U); type: organism-based; conditions: in vivo, 672 h
[18] = Sub-acute toxicity in albino Wistar rat assessed as change in CAT level per mg protein at 5 mg/kg, po administered for 28 days measured post last dose (reference value: 28.45 +/- 2.1 U); type: organism-based; conditions: in vivo, 672 h
[19] = Sub-acute toxicity in albino Wistar rat assessed as change in MDA level per mg protein at 5 mg/kg, po administered for 28 days measured post last dose (reference value: 0.91 +/- 0.1 nmol); type: organism-based; conditions: in vivo, 672 h
[20] = Sub-acute toxicity in albino Wistar rat assessed as change in hemoglobin level at 10 mg/kg, po administered for 28 days measured post last dose (reference value: 12.14 +/- 1.45 g%); type: organism-based; conditions: in vivo, 672 h
[21] = Sub-acute toxicity in albino Wistar rat assessed as change in CAT level per mg protein at 10 mg/kg, po administered for 28 days measured post last dose (reference value: 28.45 +/- 2.1 U); type: organism-based; conditions: in vivo, 672 h
[22] = Sub-acute toxicity in albino Wistar rat assessed as change in MDA level per mg protein at 10 mg/kg, po administered for 28 days measured post last dose (reference value: 0.91 +/- 0.1 nmol); type: organism-based; conditions: in vivo, 672 h

## CC(=O)c1c(C)n(Cc2ccccc2)c2ccc(OCc3cn(-c4ccc(Br)cc4)nn3)cc12
[1]
  IC50: 6.79 µM
[2]
  IC50: 125 µM
[3]
  selectivity ratio: 18.4
[4]
  Activity: Non-Toxic
[5]
  Activity: Toxic
[6]
  Activity: Non-Toxic
[7]
  Activity: Non-Toxic
[8]
  Activity: Non-Toxic
[9]
  Activity: Non-Toxic
[10]
  Activity: Non-Toxic
[11]
  Activity: Non-Toxic
[12]
  Activity: 6.65 mg/dL
[13]
  Activity: 24 U/L
[14]
  Activity: 12.68 U/L
[15]
  Activity: 12.83 g%
[16]
  Activity: 30.11 U
[17]
  Activity: 5.21 U
[18]
  Activity: 31.34 U
[19]
  Activity: 1.11 nmol
[20]
  Activity: 13.98 g%
[21]
  Activity: 32.45 U
[22]
  Activity: 1.23 nmol
